For one data set, the system named is WT TTR. Nature of the data set: Differential scanning calorimetry of WT TTR with T4 and/or inhibitors. Format: binding, human. The note with it: versus WT TTR alone (no T4 before addition); 5:1 molar ratio to TTR monomer; 3.5 M guanidinium chloride, pH 4.3. Here is the method:
Data were taken with a DSC-II differential scanning calorimeter (Calorimetry Sciences Corp., Lindon, UT). The midpoint temperatures of the thermal unfolding transition (Tm) of wild type and mutants were determined. Thermal denaturation of TTR was irreversible under our conditions ([1], [38]), and absolute thermodynamic parameters were not determined. […] The experiments were performed in 3.5 M guanidinium hydrochloride to depress melting below 100 °C; this guanidinium concentration also solubilized thyroxine. Protein samples were thawed on ice and filtered, and the concentration was measured by UV-visible absorption. Protein samples were diluted to 1 mg/ml in 3.5 M guanidinium chloride, 100 mM sodium acetate (pH 4.3), 100 mM potassium chloride, 1 mM EDTA. A volume of 700 μl of each protein sample was prepared in a 1.5-ml microcentrifuge tube and degassed for 5 min under vacuum while stirring. The reference cell contained only buffer components. […]
(§1) FIGURE 6. […] A, midpoint temperatures of the thermal unfolding transition (Tm) of wild-type TTR at different conditions were determined by differential scanning calorimetry. […] The unbound fraction of inhibitors was analyzed by HPLC-MS. […] TTR aggregation (TTR agg.) was measured by absorbance at 400 nm with the initial protein amount normalized to 100%. mAU, milli-absorbance units; N.A., not applicable. […]
(In DSC, transitions show as peaks or steps in heat flow.)

In a further data set the target is T1, monomeric variant MTTR (Homo sapiens, UniProt P02766, F107M/L130M).
T1 construct: made in house; host or cells: Escherichia coli Rosetta(DE3) pLysS, pET24(+) vector
Nature of the data set: Binding of inhibitors to MTTR (unbound fraction by HPLC-MS). The note with it: apparent affinity for all MTTR species in solution (binding to aggregated species not excluded), 0.5 mg/ml MTTR with increasing combined R4PAm and R4PTm, 37 °C, 18 h, 10 mM sodium acetate pH 7.4, 100 mM KCl, 10 mM EDTA, one-site specific binding (GraphPad Prism 6), read-out: apparent binding constant (KD). As for the experimental part: The soluble unbound fraction of inhibitors after incubation with the monomeric variant MTTR ([40]) was quantified by HPLC-MS. Samples were made as follows. Soluble TTR at a fixed concentration of 0.5 mg/ml was incubated at 37 °C for 18 h in 10 mM sodium acetate (pH 7.4), 100 mM KCl, 10 mM EDTA with increasing quantities of combined R4PAm and R4PTm. The aggregated fraction was removed by 0.22-μm filtration. The protein fraction containing soluble TTR and inhibitor-bound complexes was then removed by acid precipitation with 1% acetic acid and consecutive ultracentrifugation at 90,000 rpm for 30 min. Neither 0.22-μm filtration nor acid precipitation affected the concentration of the unbound soluble fraction of the peptide inhibitors (data not shown). The unbound soluble fraction of inhibitors was subjected to size exclusion HPLC followed by mass spectrometry. […]
as §1

Data set [1] concerns transthyretin amyloidosis. The note with it: background statement, refs 16-18 cited in the next sentence; cited from earlier work. The source says:
Currently, there is no cure for transthyretin amyloidosis, and the treatment for familial cases of ATTR is liver transplantation. […] Several other therapeutics are currently in clinical trials, including other tetramer stabilizers such as diflunisal and RNAi therapies that cause a decrease in the production of TTR protein ([16][–][18]). Additional approaches are needed to prevent ATTR, and here we explore the use of peptide inhibitors that block aggregation of TTR.

Data set [2] in a line: Fibril formation of TTR peptides in isolation (TEM). Conditions: PBS pH 7.4, 37 °C, no shaking; TEM after 7 days (methods: incubated 2 weeks); peptide concentration 0.5-17 mM. The class given is physicochemical. As for the experimental part: Following dissolution, samples were filtered through a 0.2-μm filter and incubated at 37 °C with no shaking for 2 weeks.
TEM was performed to visualize the fibril formation of TTR proteins and peptides. 5 μl of the sample was spotted onto freshly glow-discharged, carbon-coated EM grids (Ted Pella, Redding, CA). After 3 min of incubation, grids were rinsed three times with 5 μl of distilled water and then stained with 2% uranyl acetate for 2 min. Grids were examined with a T12 Quick CryoEM and CryoET (FEI) transmission electron microscope at an accelerating voltage of 120 kV. Digital images were recorded using a Gatan 2,048 × 2,048 charge-coupled device camera.
FIGURE 2. β-Strand F as an aggregation-driving segment in TTR suitable for aggregation inhibitor design. […] Histograms show percentage of TTR aggregation using WT TTR to normalize to 100%. The aggregation was measured by absorbance of the samples at 400 nm after 4 days of incubation at 37 °C and pH 4.3 with no shaking. […]
FIGURE 3. β-Strand H as a second aggregation-driving segment suitable as a target for aggregation inhibitor design. A, residue solvent-accessible surface area (ASA; Å^2) of TTR was calculated by Areaimol using the structure of WT TTR in three different conformations: tetramer (blue), dimer (black), and monomer (green). […]

Where a SMILES comes first, the peptide text is derived from it. [ ]: non-standard residue; d: D form. NMeE = CN[C@@H](CCC(=O)O)C(=O)O; NMeA = CN[C@@H](C)C(=O)O

`NC(Cc1cc(I)c(Oc2cc(I)c(O)c(I)c2)c(I)c1)C(=O)O` (stereo not drawn) [T4, thyroxine]: in the data set with WT TTR, the “increase in Tm of WT TTR on addition” value was 10.8 °C.

Regarding `CC(C)[C@H](NC(=O)[C@@H](NC(=O)[C@H](C)N(C)C(=O)[C@@H](NC(=O)[C@@H](NC(=O)[C@H](CO)NC(=O)[C@H](Cc1ccc(O)cc1)NC(=O)[C@H](CO)NC(=O)[C@H](Cc1ccc(O)cc1)NC(=O)[C@@H]1CCCN1C(=O)[C@H](CCCNC(=N)N)NC(=O)[C@H](CCCNC(=N)N)NC(=O)[C@H](CCCNC(=N)N)NC(=O)[C@@H](N)CCCNC(=N)N)[C@@H](C)O)[C@@H](C)O)C(C)C)C(=O)N[C@H](C(=O)N[C@@H](CC(N)=O)C(=O)O)[C@@H](C)O` [R4PTm] (H-RRRRPYSYSTT[NMeA]VVTN-OH), the Kd on monomeric variant MTTR turned out to be 19.3 ± 6.7 µM.

Take `O=C(O)c1ccc2nc(-c3cc(Cl)cc(Cl)c3)oc2c1` [Tafamidis]: the “disease progression” value in data set [1] was “delays progression of the disease”.

Turning to `CC(C)[C@H](NC(=O)[C@@H](NC(=O)[C@H](CCC(=O)O)N(C)C(=O)[C@H](C)NC(=O)[C@H](Cc1c[nH]cn1)NC(=O)[C@H](CCC(=O)O)NC(=O)[C@H](Cc1c[nH]cn1)NC(=O)[C@H](Cc1ccccc1)NC(=O)[C@@H]1CCCN1C(=O)[C@H](CCCNC(=N)N)NC(=O)[C@H](CCCNC(=N)N)NC(=O)[C@H](CCCNC(=N)N)NC(=O)[C@@H](N)CCCNC(=N)N)C(C)C)C(=O)N[C@@H](Cc1ccccc1)C(=O)N[C@H](C(=O)N[C@@H](C)C(=O)O)[C@@H](C)O` [R4PAm] (H-RRRRPFHEHA[NMeE]VVFTA-OH), the Kd at monomeric variant MTTR amounted to 17.9 ± 6.1 µM.

For the compound “AEVVFT [6-residue TTR segment 91-96 from strand F]”, in data set [2], the “fibril formation in isolation” value is on record as “form fibrils in solution by self-aggregation”.

In the case of “TAVVTN [6-residue TTR segment 119-124 from strand H]”, the “fibril formation in isolation” value in data set [2] is “form fibrils in solution by self-aggregation”.

These data come from article PMC4661406, “Uncovering the Mechanism of Aggregation of Human Transthyretin” (The Journal of Biological Chemistry, 2015).
